Laboratory results taken from US20240398831A1, “COMPOSITIONS COMPRISING SMALL MOLECULE REGULATORS OF TUMOR IMMUNITY AND METHODS OF USING SAME” (Duke University, priority 2021, published 2024).
Where two headings read alike, the source gives them in different places.

What was measured:
YuMM5.2 tumors = assay type: in vivo
Method: Tumor models and cells. The mouse B16F10 and Yumm5.2 cell lines were purchased from American Type Culture Collection (ATCC, Manassas, VA). The mouse melanoma cell line BPD6 was established from iBP as described elsewhere (Zhao et al., Immunity 2018, 48, 147-160). B16F10 and BPD6 cells were maintained in Dulbecco's Modified Eagle's Medium (DMEM) supplemented with 8% fetal bovine serum (FBS), 0.1 mM non-essential amino acids (NEAA) and 1 mM sodium pyruvate. YuMM5.2 cells were maintained in DMEM/F12 media supplemented with 10% FBS. The cells were replated 3 times/week at a confluency of 1:10 and were kept in a 37° C. incubator at 5% CO2. For subcutaneous tumor models B16F10 (5×10^4 or 1×10^5), YuMM5.2 (5×10^5), and BPD6 (5×10^5) cells were injected into the right flank of the mice. For iBP mice, tumors were induced with a single intradermal dose of 4-hydroxytamoxifen in DMSO (150 μg/mouse). Tumors were measured thrice weekly using an electronic caliper. Tumor volumes were calculated by the formula V=L×(W×W)/2. For iBP mouse tumors, volumes were calculated by the formula V=L×B×H. For tumor growth rate studies mice were euthanized when the tumors reached a maximum size of 2000 mm^3.
Ovarlectomy and subcutaneous pellet Insertion. Ovariectomy was performed as previously described (Nelson et al., Science 2013, 342, 1094-1098). Eight days prior to tumor inoculation, 7 weeks old C57BL/6J or 5 weeks old (iBP) female mice were subjected to ovariectomy or sham surgery. Mice were anesthetized in an inhalation chamber (2% Isoflurane) and maintained in half the dose of isoflurane (1%) via nose cone throughout the surgical process. Prior to surgery, mice were administered a 5 mg/kg dose of carprofen subcutaneously. The area below the ribs was shaved with an electronic razor and the skin was sterilized by rubbing with betadine and alcohol (3× alternating). A horizontal incision was made through the skin above the ovary fat pad, followed by a vertical incision through the abdominal muscle wall. The ovary was externalized and removed using a cauterizing scissors (or returned if sham). Fat pad was replaced, and muscle walls were opposed and sutured (1-2 stitches). Following suturing, 1 drop of bupivacaine (0.25%) was added on top of the incision site. The skin was opposed, and a wound clip was placed on the incision site. This was repeated for the other ovary. The mouse was then removed from anesthesia and kept in a clean cage and monitored until conscious. The mice were monitored for recovery for 10 days.
Single cell isolation from tumors. Tumors were isolated, minced on a petri dish in media (DMEM+5% FBS), and then enzymatically digested by the addition of 100 μg/mL DNase I (D5025-150KU, Sigma-Aldrich) and 1 mg/mL collagenase (Collagenase A, Cat #10103586001, Sigma-Aldrich) for 30 mins-45 mins. For iBP models, isolated tumors were sliced into large chunks and subjected to mechanical digestion in a gentleMACS Dissociator for 30 seconds twice. Following this, tumors were digested with an enzyme cocktail containing DNase I, collagenase, and hyaluronidase (100 μg/mL) (H6254, Sigma-Aldrich) for 40 mins following a second round of mechanical digestion for 30 seconds (twice). The cells were then filtered through a 40 μm strainer to produce single cell suspensions and the enzymes were diluted by addition of additional media then spun down to remove media. Red blood cells were lysed with the addition of ACK lysis buffer (Cat #A1049201. ThermoFisher Scientific) for 4 mins at room temperature. Following red blood cell lysis, cells were washed with PBS before proceeding to flow cytometry staining or magnetic bead-based isolation.
Flow cytometry staining. Single cells suspensions (10^6 cells in 50 μL) were incubated with Live/dead fixable dead cell stain in PBS for 10 mins at 4° C. Cells were spun down at 1000×g and were incubated with anti-CD16/32 (Catalog #14-0161-85, ThermoFisher Scientific) in flow buffer (10 gms BSA in 1 L PBS+sodium azide) for 15 mins. […]

YuMM5.2 cells = assay: Quantitative PCR of ER target genes in melanoma cells; assay type: cell-based, mouse; settings: E2 1 nM, 16 hr
[1] = test system: WNT5A and TCF4 target genes; assay: Quantitative PCR of tumor infiltrating myeloid cells from iBP tumors; assay type: in vivo, mouse
Method: All target genes were normalized to Rplp0 and then siEsr1 (FIG. 14E) or DMSO (FIG. 14F) samples were normalized to siRNA control. Data are represented as mean±S.E.M. Significance was calculated by Student's t test (FIGS. 14C-14D) (*p<0.05, **p<0.01, and ***p<0.001).
Quantitative PCR of tumor Infiltrating myeloid cells. Tumor infiltrating myeloid cells were isolated from iBP tumors using a CD11b isolation kit (catalog #18970, StemCell Technologies). RNA was isolated using RNA Aqueous Micro kit (catalog #1931, Ambion) followed by cDNA synthesis using an iScript cDNA synthesis kit (Cat #170-7691). Quantitative amplification was performed using Sybr Green (Cat #1725124, Bio-Rad) and a CFX-384 Real Time PCR detection system. Primers used are listed below in TABLE 1.

[2] = E2 vs placebo, ex vivo PMA and ionomycin 4 hr

Row | Compound | inflammatory macrophages (MHCII^hi CD206−) (YuMM5.2 tumors; E2 treated mice co-treated with fulvestrant) | tumor growth (YuMM5.2 tumors; fulvestrant 25 mg/kg, E2 supplemented mice) | number of PD1+CD8+ T cells (exhausted T cells) (YuMM5.2 tumors; fulvestrant treatment of E2 treated mice) | cytotoxic capabilities of tumor infiltrating T cells, Granzyme B (GZMB) expression (YuMM5.2 tumors; mouse, in vivo) | tumor promoting effects of E2, tumor cells co-mixed with BMDM (1:1) (YuMM5.2 tumors; BMDM from Esr1^f/f, LysMCre versus Esr1^f/f) | number of PD1+CD8+ T cells (exhausted T cells) (YuMM5.2 tumors; E2 treatment) | Granzyme B expression in CD8+ TILs (YuMM5.2 tumors; [2]) | IFNγ in CD8+ TILs (YuMM5.2 tumors; [2]) | PD1 expression on CD8+ TILs (YuMM5.2 tumors; [2]) | activation markers CD44 and CD69 on CD8+ TILs (YuMM5.2 tumors; [2]) | tumor growth (YuMM5.2 tumors; E2 vs placebo, ovariectomized C57BL/6J) | infiltration of CD4+ FOXP3+ regulatory T cell subsets (YuMM5.2 tumors; E2 vs placebo, FIGS. 16D-16E B16F10 and YuMM5.2) | tumor growth (YuMM5.2 tumors; Esr1^f/f and LysMCre control mice) | tumor growth (YuMM5.2 tumors; Esr1^f/f, LysMCre mice (myeloid ERα knockout)) | percentage of Ly6C+/Ly6G+ MDSCs in tumors (YuMM5.2 tumors; flow cytometry, E2 vs placebo) | M1 (proinflammatory macrophages) in tumor infiltrating immune cells (YuMM5.2 tumors; flow cytometry, Esr1^f/f animals) | expression of classical ER target genes (Pgr and Cxc112) (YuMM5.2 cells) | genes in the WNT5A and TCF4 pathways ([1]; E2 compared to placebo) | expression of Vegfa, Tgm2 and Tspo and Stat1 ([1]; myeloid cells from E2 treated tumors)
1 | C[C@]12CC[C@@H]3c4ccc(O)cc4C[C@@H](CCCCCCCCC[S+]([O-])CCCC(F)(F)C(F)(F)F)[C@H]3[C@@H]1CC[C@@H]2O (stereo partly shown) [fulvestrant] | increase | significantly reduced | decrease | increase |  |  |  |  |  |  |  |  |  |  |  |  |  |  | 
2 | 17β-estradiol [E2] |  |  |  |  | significantly compromised | increased | reduced expression | reduced expression | significantly more | reduced expression | significantly increased | not observed | increased | not evident | no changes | decrease | did not lead to changes | differentially regulated | increased expression
